Assay results from the NIST ThermoML archive (doi:10.1021/je7006956).
Numbers after ± are expanded uncertainties.

Columns and labels:
[1] = for mass density: 101.33 kPa, Pycnometric method; for mass density / viscosity: Liquid
[2] = cn = amount concentration of the nth substance listed, in mol/dm3; conditions: 101 kPa, Liquid, Pycnometric method

## O=C(c1ccccc1)N(O)c1ccccc1 [N-phenylbenzohydroxamic acid]
[1]; Crystal, visual observation
  Normal melting temperature: 121.00 ± 1 °C

## O=C(c1ccccc1)N(O)c1ccccc1 [N-phenylbenzohydroxamic acid] + C[S+](C)[O-]
[2]; 298.15 K, c1 = 0.0469
  mass density: 1097.23 ± 2.5 kg/m3
[2]; 298.15 K, c1 = 0.0938
  mass density: 1098.39 ± 2.5 kg/m3
[2]; 298.15 K, c1 = 0.1408
  mass density: 1098.59 ± 2.5 kg/m3
[2]; 298.15 K, c1 = 0.1877
  mass density: 1099.36 ± 2.4 kg/m3
[2]; 298.15 K, c1 = 0.2347
  mass density: 1100.14 ± 2.4 kg/m3
[2]; 298.15 K, c1 = 0.2816
  mass density: 1100.75 ± 2.4 kg/m3
[2]; 298.15 K, c1 = 0.3286
  mass density: 1101.46 ± 2.4 kg/m3
[2]; 298.15 K, c1 = 0.3755
  mass density: 1102.02 ± 2.3 kg/m3
[2]; 298.15 K, c1 = 0.4225
  mass density: 1102.75 ± 2.3 kg/m3
[2]; 298.15 K, c1 = 0.4694
  mass density: 1102.8 ± 2.3 kg/m3
[2]; 303.15 K, c1 = 0.0469
  mass density: 1093.69 ± 2.5 kg/m3
[2]; 303.15 K, c1 = 0.0938
  mass density: 1094.33 ± 2.5 kg/m3
[2]; 303.15 K, c1 = 0.1408
  mass density: 1094.95 ± 2.5 kg/m3
[2]; 303.15 K, c1 = 0.1877
  mass density: 1096.03 ± 2.5 kg/m3
[2]; 303.15 K, c1 = 0.2347
  mass density: 1097.27 ± 2.4 kg/m3
[2]; 303.15 K, c1 = 0.2816
  mass density: 1098.29 ± 2.4 kg/m3
[2]; 303.15 K, c1 = 0.3286
  mass density: 1098.91 ± 2.4 kg/m3
[2]; 303.15 K, c1 = 0.3755
  mass density: 1099.88 ± 2.3 kg/m3
[2]; 303.15 K, c1 = 0.4225
  mass density: 1100.55 ± 2.3 kg/m3
[2]; 303.15 K, c1 = 0.4694
  mass density: 1100.96 ± 2.3 kg/m3
[2]; 308.15 K, c1 = 0.0469
  mass density: 1089.07 ± 2.5 kg/m3
[2]; 308.15 K, c1 = 0.0938
  mass density: 1090.08 ± 2.5 kg/m3
[2]; 308.15 K, c1 = 0.1408
  mass density: 1091.61 ± 2.5 kg/m3
[2]; 308.15 K, c1 = 0.1877
  mass density: 1091.83 ± 2.5 kg/m3
[2]; 308.15 K, c1 = 0.2347
  mass density: 1093.14 ± 2.5 kg/m3
[2]; 308.15 K, c1 = 0.2816
  mass density: 1094.08 ± 2.4 kg/m3
[2]; 308.15 K, c1 = 0.3286
  mass density: 1095.64 ± 2.4 kg/m3
[2]; 308.15 K, c1 = 0.3755
  mass density: 1096.52 ± 2.4 kg/m3
[2]; 308.15 K, c1 = 0.4225
  mass density: 1097.67 ± 2.3 kg/m3
[2]; 308.15 K, c1 = 0.4694
  mass density: 1098.81 ± 2.3 kg/m3
[2]; 313.15 K, c1 = 0.0469
  mass density: 1084.72 ± 2.6 kg/m3
[2]; 313.15 K, c1 = 0.0938
  mass density: 1086.26 ± 2.5 kg/m3
[2]; 313.15 K, c1 = 0.1408
  mass density: 1086.93 ± 2.5 kg/m3
[2]; 313.15 K, c1 = 0.1877
  mass density: 1087.56 ± 2.5 kg/m3
[2]; 313.15 K, c1 = 0.2347
  mass density: 1088.34 ± 2.5 kg/m3
[2]; 313.15 K, c1 = 0.2816
  mass density: 1089.59 ± 2.4 kg/m3
[2]; 313.15 K, c1 = 0.3286
  mass density: 1090.74 ± 2.4 kg/m3
[2]; 313.15 K, c1 = 0.3755
  mass density: 1091.97 ± 2.4 kg/m3
[2]; 313.15 K, c1 = 0.4225
  mass density: 1093.11 ± 2.4 kg/m3
[2]; 313.15 K, c1 = 0.4694
  mass density: 1094.24 ± 2.4 kg/m3
[2]; 318.15 K, c1 = 0.0469
  mass density: 1078.8 ± 2.6 kg/m3
[2]; 318.15 K, c1 = 0.0938
  mass density: 1080.58 ± 2.6 kg/m3
[2]; 318.15 K, c1 = 0.1408
  mass density: 1081.55 ± 2.5 kg/m3
[2]; 318.15 K, c1 = 0.1877
  mass density: 1082.82 ± 2.5 kg/m3
[2]; 318.15 K, c1 = 0.2347
  mass density: 1083.33 ± 2.5 kg/m3
[2]; 318.15 K, c1 = 0.2816
  mass density: 1084.33 ± 2.4 kg/m3
[2]; 318.15 K, c1 = 0.3286
  mass density: 1085.8 ± 2.4 kg/m3
[2]; 318.15 K, c1 = 0.3755
  mass density: 1086.86 ± 2.4 kg/m3
[2]; 318.15 K, c1 = 0.4225
  mass density: 1087.92 ± 2.4 kg/m3
[2]; 318.15 K, c1 = 0.4694
  mass density: 1089.02 ± 2.4 kg/m3

## C[S+](C)[O-] [dimethyl sulfoxide]
[1]; 298.15 K
  mass density: 1094.75 ± 2.6 kg/m3
  viscosity: 1.993 ± 0.096 mPa·s
[1]; 303.15 K
  mass density: 1090.76 ± 2.6 kg/m3
  viscosity: 1.801 ± 0.088 mPa·s
[1]; 308.15 K
  mass density: 1086.06 ± 2.6 kg/m3
  viscosity: 1.652 ± 0.081 mPa·s
[1]; 313.15 K
  mass density: 1080.45 ± 2.6 kg/m3
  viscosity: 1.516 ± 0.075 mPa·s
[1]; 318.15 K
  mass density: 1075.26 ± 2.6 kg/m3
  viscosity: 1.398 ± 0.07 mPa·s
